A word on the Kd: it is a measure of binding affinity in units of concentration.

This test in a line: Binding affinity of compound to P-glycoprotein recombinant domain of prenylated xanthones was evaluated.

Each structure is given as a SMILES string.

As for `COCCOCOc1cc(OCC=C(C)C)c2c(=O)cc(-c3ccccc3)oc2c1`, the Kd amounted to 6.1 µM. As for `COc1cc2oc3ccc(OC)c(OC)c3c(=O)c2c(O)c1CC=C(C)C`, the figure is 0.39 µM; as for `C=CC(C)(C)c1c(OC)cc2oc3ccc(OC)c(OC)c3c(=O)c2c1O`, 0.25 µM; as for `COc1cc(OCC=C(C)C)c2c(=O)c3c(OC)c(OC)ccc3oc2c1`, 13.9 µM. Take `COCCOCOc1cc(O)c2c(=O)cc(-c3ccccc3)oc2c1CC=C(C)C`: the Kd was 0.1 µM.

`C=CC(C)(C)c1c(OCOCCOC)cc2oc(-c3ccccc3)cc(=O)c2c1O`: the Kd worked out at 0.1 µM. The figure for `COc1cc(O)c2c(=O)c3c(OC)c(OC)ccc3oc2c1CC=C(C)C` is 0.59 µM.

Turning to `COc1cc2oc3ccc(OC)c(OC)c3c(=O)c2c2c1C(C)(C)C(C)O2` (stereo not given), the Kd came out at 24.8 µM. The figure for `COc1cc(O)c2c(=O)c3c(OC)c(OC)ccc3oc2c1` [DECUSSATIN] is 28.8 µM. As for `COCCOCOc1cc(O)c2c(=O)cc(-c3ccccc3)oc2c1`, the figure is 8.05 µM.
